Earlier results in patent publication US20230181491A1, “COMPOSITIONS AND METHODS FOR THE TREATMENT AND MANAGEMENT OF INFLAMMATION USING HYDROXYNORKETAMINE” (SPIRIFY PHARMA INC., priority 2020, published 2023).
Structures can show the parent of a compound that is named as a salt.

System: rats
Conditions: cited from earlier work

Compound | spontaneous locomotor activity during the postanesthetic recovery phase
CNC1(c2ccccc2Cl)CCCCC1=O (racemic) [(R,S)-ketamine hydrochloride] | increased spontaneous locomotor activity
NC1(c2ccccc2Cl)CCCCC1=O (racemic) [(R,S)-norketamine] | increased spontaneous locomotor activity
(2R,6R;2S,6S)-HNK | no anesthetic or hyperlocomotor effects
